System: dermal fibroblast
Test: Influence of fatty acids on intracellular neutral lipid content of dermal fibroblast from diabetic patient, enzyme assay
Type: cell-based, human
Set-up: Intracellular TG-decreasing activity: scale not given here
Settings: for Intracellular TG-decreasing activity: based on part of the results in FIG. 4 and FIG. 5; for Activity to decrease intracellular TG: comparison of medium-chain fatty acids (FIG. 5); for Intracellular TG (neutral lipid) content: fatty acid added at 50 and 500 μM, cells collected 2 days later, versus no fatty acid (FIG. 4)
Description: With the consent of the diabetic patient in Example 3, part of dermal tissue was harvested and was then subjected to primary culture (culture medium: DMEM/10% FBS) by Explant method, followed by repeated subculture to give a cell line. The resulting dermal fibroblast was examined for the influence of various fatty acids on an intracellular neutral lipid content. Specifically, the dermal specimen harvested from the patient was subjected to an in vitro enzyme assay using various fatty acids to measure an intracellular neutral lipid content. The enzyme assay was performed using a triglyceride quantification kit (manufacturer: BioVision, Inc., product code: K622-100). […] To the patient's cells, the various fatty acids were added, and 2 days later, the cells were collected. In the figures, (-) is a specimen to which no fatty acid was added (cultured as a control in DMEM/10% FBS alone). C16:0 is palmitic acid, C18:1 is oleic acid, C18:2 is linoleic acid, C20:4 is arachidonic acid, C20:5 is eicosapentaenoic acid (EPA), C7:0 is heptanoic acid, C8:0 is caprylic acid, and C10:0 is capric acid.

SMILES | Intracellular TG-decreasing activity | Activity to decrease intracellular TG | Intracellular TG (neutral lipid) content
CC(C)CCCCCCC(=O)O [8-methylnonanoic acid] | 100 | great activity to decrease TG | –
CCCCCCCCCC(=O)O [capric acid] | 100 | great activity to decrease TG | decreased
CCCCCCCC(=O)O [caprylic acid] | 5 | – | –
CCCCCCC(=O)O [heptanoic acid, reference compound] | 0 | – | increased

From patent US20140296338A1, “PROPHYLACTIC AND/OR THERAPEUTIC AGENT FOR CARDIOVASCULAR COMPLICATIONS OF DIABETES” (priority 2011, published 2014)
